Measured values from patent US5290789A, “Penta and tetrasubstituted piperidines and compositions and method of treating psychosis” (Sterling Wintrop Inc., priority 1992, dated 1994).
Like-named read-outs stand apart in the source and are kept apart here.

Key:
[1] = test system: sigma receptors; assay: sigma receptor binding, [^3 H]di(2-tolyl)guanidine (DTG), guinea pig brain membranes; settings: inhibition of binding at 10 μM; [^3 H]DTG approximately 4 nM, 25° C., 90 min
Experimental: (§1) Brain tissue was prepared from male Hartley guinea pigs (Hazelton Labs, Denver, Pa.) which were anesthetized with CO2 and sacrificed by decapitation. All animal care and use procedures were in accord with the "Guide for the Care and Use of Laboratory Animals" (NIH Publ. No. 86-23, 1985). Homogenization was performed in 10 volumes (wt/vol) of 0.32 M sucrose with a Brinkmann Polytron at setting 5, 30 sec. The homogenate was centrifuged at 900×g for 10 min at 4° C., and the supernatant was collected and centrifuged at 22,000×g for 20 min at 4° C. The pellet was resuspended in 10 volumes of Tris-HCl buffer (50 mm, pH 7.4), incubated at 37° C. for 30 min, and centrifuged at 22,000×g for 20 min at 4° C. Following this, the pellet was resuspended in Tris buffer and frozen in 5-10 mL aliquots corresponding to a tissue concentration of 100 mg/ml, at -70° C. Binding characteristics of the membranes were stable for at least one month when stored at -70° C.
On the day of the assay, membrane aliquots were thawed, resuspended in fresh Tris-HCl buffer and stored on ice until use. […]
Following addition of scintillation cocktail, samples were allowed to equilibrate for at least 4 hr. The amount of bound radioactivity was determined by liquid scintillation spectrometry using a Beckman LS 5000 TA liquid scintillation counter with an efficiency for tritium of approximately 60%. […]
(§2) Scatchard parameters and inhibition constants (Ki values) for the binding of test compounds were also calculated using the EBDA/LIGAND program (McPherson, J. Pharmacol. Meth. 1985, 14, 213-228), purchased from Elsevier/Biosoft, Inc. The Ki values are expressed as the mean or the mean ±SEM of at least two separate determinations performed in triplicate.

[2] = molecular target: T1, sigma receptors (Cavia porcellus, UniProt Q60492); assay: sigma receptor binding, [^3 H]-(+)-pentazocine, guinea pig brain membranes; settings: for inhibition at 10 µM: 2.5 h, inhibition of binding at 10 μM, [^3 H]-(+)-pentazocine approximately 0.5 nM, read-out: [^3 H] (+)-Pentazocine Percent Inhibition
T1 construct: Brain tissue was prepared from male Hartley guinea pigs; from tissue; host or cells: guinea pig brain membranes
T1 sequence (Q60492 whole entry): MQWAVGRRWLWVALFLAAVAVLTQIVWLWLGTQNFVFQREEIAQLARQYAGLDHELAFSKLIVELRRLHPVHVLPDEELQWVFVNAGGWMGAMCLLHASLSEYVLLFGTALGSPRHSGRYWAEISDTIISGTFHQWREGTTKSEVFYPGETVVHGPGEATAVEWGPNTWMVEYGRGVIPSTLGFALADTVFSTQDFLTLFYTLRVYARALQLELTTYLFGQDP
Experimental: as §1
On the day of the assay, membrane aliquots were thawed, resuspended in fresh Tris-HCl buffer and stored on ice until use. Each assay tube contained 100 μL of [^3 H]-(+)-pentazocine at a final concentration of approximately 0.5 nM or 100 μL of [^3 H)di(2-tolyl)guanidine (DTG) at a final concentration of approximately 4 nM, 100 μL of various concentrations of the compounds of interest, 500 μL of the tissue suspension and 300 μL of buffer to a final assay volume of 1 mL and a final tissue concentration of approximately 8 mg/tube, corresponding to approximately 0.15 mg protein/tube. Non-specific binding was defined by addition of a final concentration of 1 μM haloperidol to blank tubes for [^3 H](+)-pentazocine assay or by addition of a final concentration of 10 μM haloperidol to blank tubes for [^3 H]DTG assay. All tubes were incubated at 37° C. for 150 min in the [^3 H](+) -pentazocine assay or at 25° C. for 90 min in the [^3 H]DTG assay before termination of the reaction by rapid filtration over Whatman GF/B glass fiber filters that were presoaked in a solution of 0.5% polyethyleneimine for at least 1 hr prior to use. Filters were washed with three 4 ml volumes of cold Tris-HCl buffer.
Following addition of scintillation cocktail, samples were allowed to equilibrate for at least 4 hr. The amount of bound radioactivity was determined by liquid scintillation spectrometry using a Beckman LS 5000 TA liquid scintillation counter with an efficiency for tritium of approximately 60%. The results are reported as a percent (%) inhibition of binding at 10 μM.
as §2

[3] = test system: apomorphine-induced climbing; assay: apomorphine-induced climbing assay; type: in vivo, mouse (male, Swiss-Webster); settings: Mus musculus, ip; test compound i.p., apomorphine 5.5 mg/kg s.c.; rated 20-30 minutes post drug treatment; Dunnett's Test P<0.05; read-out: minimal effective dose (MED) for inhibition of apomorphine-induced climbing
Experimental: (§3) The compound of Example 4 was tested in vivo in the apomorphine-induced climbing assay and the apomorphine-induced stereotypy assay using the following procedures:
(§4) Male, Swiss-Webster mice (Taconic Farms, Germantown, N.Y.) weight 20-30 grams were grouped housed in colony facilities for a minimum of two days prior to testing. The colony facility was maintained on a 12 hour light/dark cycle (light: 0600-1800 hours) with water and Agway Prolab 100 rat chow available ad libitum. Each mouse was given an injection of test compound i.p. followed immediately by a s.c. injection of apomorphine 5.5 mg/kg or vehicle. All drugs were administered in a volume of 10 ml/kg body weight. The mice were then placed in individual cylindrical stainless steel climbing cages; 14.5 cm tall, 12 cm in diameter, with walls consisting of 1/16" O.D. bars spaced 0.8-1.0 cm apart, and were allowed to habituate to this environment for 20 minutes. […] Briefly, a (0) was scored for absence of any stereotypic behavior, infrequent stereotypic movements were scored as (1) , a (2) was scored for permanent sniffing and a score of (3) indicated intense and continuous stereotypic behavior. Treatment means for the 10 minute totals were calculated for climbing and stereotypy. […] A minimal effective dose (MED) for inhibition was determined for each parameter based on these analyses.

[4] = test system: apomorphine-induced stereotypy; assay: apomorphine-induced stereotypy assay; type: in vivo, mouse (male, Swiss-Webster); settings: test compound i.p., apomorphine 5.5 mg/kg s.c.; rated 20-30 minutes post drug treatment
Experimental: as §3, §4

[5] = mean or mean ±SEM of at least two separate determinations performed in triplicate, 37° C., 150 min, read-out: [^3 H] (+)-Pentazocine Ki

| SMILES | inhibition at 10 µM ([2]; 37° C., 150 min) [%] | Ki [2, 5] [nM] | also measured |
| --- | --- | --- | --- |
| C[C@@H]1CCN(C)[C@@H](C)[C@]1(C)CCCO (relative stereo) [Example 1b, 3-(1,2,3,4-tetramethyl-3-piperidine)propanol] | 42 |  | [3H]DTG Percent Inhibition [1]: 39 percent (%) |
| C[C@@H]1CCN(C)[C@@H](C)[C@]1(C)CCCOCC1CC1 (relative stereo) [Example 1c, 3-[3-(cyclopropylmethoxy)propyl]1,2,3,4-tetramethylpiperidine] | 94 |  | Ki [2]: 197 ± 32 nM |
| C[C@@H]1CCN(C)[C@@H](C)[C@@H]1CCCOCC1CC1 (relative stereo) [Example 2c, 3-[3-(cyclopropylmethoxy)propyl]1,2,4-trimethylpiperidine] |  | 5 ± 0.2 |  |
| C[C@@H]1CCN[C@@H](C)[C@]1(C)CCCO (relative stereo) [Example 3c, 2.3.4-trimethyl-3-piperidinepropanol] |  | 16700 | [3H]DTG Percent Inhibition [1]: 23 percent (%) |
| CCCN1CC[C@@H](C)[C@@](C)(CCCOCC2CC2)[C@@H]1C (relative stereo) [Example 3f, 3-[3-(cyclopropylmethoxy)propyl]-2,3,4-trimethyl-1-propylpiperidine] | 99 | 45 ± 2 |  |
| C[C@@H]1CCN(Cc2ccccc2)[C@@H](C)[C@]1(C)CCCOCC1CC1 (relative stereo) [Example 4, 3-[3-(cycloprolmethoxy)propyl]-2,3,4-trimethyl-1-(phenylmethyl)piperidine] |  | 3.7 ± 0.4 | minimal effective dose [3]: 167 µmol/kg; effect on stereotypic behavior [4]: did not affect stereotypic behavior |
| CC(C)N1CC[C@@H](C)[C@@](C)(CCCO)[C@@H]1C (relative stereo) [Example 5a, 2,3. 4-trimethyl-l-(1-methylethyl)-3-piperidinepropanol] | 17 |  | [3H]DTG Percent Inhibition [1]: 30 percent (%) |
| CC(C)N1CC[C@@H](C)[C@@](C)(CCCOCC2CC2)[C@@H]1C (relative stereo) [Example 5b, 3-[3-(cyclopropylmethoxy)propyl]-2,3,4-trimethyl-1-(1-methylethyl)piperidine] | 91 | 435 ± 17 |  |
| C=CCOCCC[C@]1(C)[C@H](C)CCN(C)[C@H]1C (relative stereo) [Example 6] | 89 | 559 ± 64 |  |
| C#CCOCCC[C@]1(C)[C@H](C)CCN(C)[C@H]1C (relative stereo) [Example 7] | 76 |  |  |
| C[C@@H]1CCN(Cc2ccccc2)[C@@H](C)[C@]1(C)CCO (relative stereo) [Example 8b, 2,3,4-trimethyl-1-(phenylmethyl)-3-piperidineethanol] | 85 |  |  |
| C=CCOCC[C@]1(C)[C@H](C)CCN(Cc2ccccc2)[C@H]1C (relative stereo) [Example 9] | 99 | 300 ± 65 |  |
| COCCC[C@]1(C)[C@H](C)CCN(C)[C@H]1C (relative stereo) [Example 13, 3-(3-methoxypropyl)-1,2,3,4-tetramethylpiperidine] |  | 7670 |  |
